From patent publication US9181273B2, “Morpholine-spirocyclic piperidine amides as modulators of ion channels” (Vertex Pharmaceuticals Incorporated, priority 2011, dated 2015)

Molecular target: human NaV subtype, like NaV 1.7 (Homo sapiens, UniProt Q15858)
Test: E-VIPR optical membrane potential assay with electrical stimulation
Assay type: cell-based
Conditions: active against one or more sodium channels; assay and NaV subtype not specified for Table 3; read-out: IC50 Binned Activity Data

Sequence of human NaV subtype, like NaV 1.7 (Q15858 whole entry): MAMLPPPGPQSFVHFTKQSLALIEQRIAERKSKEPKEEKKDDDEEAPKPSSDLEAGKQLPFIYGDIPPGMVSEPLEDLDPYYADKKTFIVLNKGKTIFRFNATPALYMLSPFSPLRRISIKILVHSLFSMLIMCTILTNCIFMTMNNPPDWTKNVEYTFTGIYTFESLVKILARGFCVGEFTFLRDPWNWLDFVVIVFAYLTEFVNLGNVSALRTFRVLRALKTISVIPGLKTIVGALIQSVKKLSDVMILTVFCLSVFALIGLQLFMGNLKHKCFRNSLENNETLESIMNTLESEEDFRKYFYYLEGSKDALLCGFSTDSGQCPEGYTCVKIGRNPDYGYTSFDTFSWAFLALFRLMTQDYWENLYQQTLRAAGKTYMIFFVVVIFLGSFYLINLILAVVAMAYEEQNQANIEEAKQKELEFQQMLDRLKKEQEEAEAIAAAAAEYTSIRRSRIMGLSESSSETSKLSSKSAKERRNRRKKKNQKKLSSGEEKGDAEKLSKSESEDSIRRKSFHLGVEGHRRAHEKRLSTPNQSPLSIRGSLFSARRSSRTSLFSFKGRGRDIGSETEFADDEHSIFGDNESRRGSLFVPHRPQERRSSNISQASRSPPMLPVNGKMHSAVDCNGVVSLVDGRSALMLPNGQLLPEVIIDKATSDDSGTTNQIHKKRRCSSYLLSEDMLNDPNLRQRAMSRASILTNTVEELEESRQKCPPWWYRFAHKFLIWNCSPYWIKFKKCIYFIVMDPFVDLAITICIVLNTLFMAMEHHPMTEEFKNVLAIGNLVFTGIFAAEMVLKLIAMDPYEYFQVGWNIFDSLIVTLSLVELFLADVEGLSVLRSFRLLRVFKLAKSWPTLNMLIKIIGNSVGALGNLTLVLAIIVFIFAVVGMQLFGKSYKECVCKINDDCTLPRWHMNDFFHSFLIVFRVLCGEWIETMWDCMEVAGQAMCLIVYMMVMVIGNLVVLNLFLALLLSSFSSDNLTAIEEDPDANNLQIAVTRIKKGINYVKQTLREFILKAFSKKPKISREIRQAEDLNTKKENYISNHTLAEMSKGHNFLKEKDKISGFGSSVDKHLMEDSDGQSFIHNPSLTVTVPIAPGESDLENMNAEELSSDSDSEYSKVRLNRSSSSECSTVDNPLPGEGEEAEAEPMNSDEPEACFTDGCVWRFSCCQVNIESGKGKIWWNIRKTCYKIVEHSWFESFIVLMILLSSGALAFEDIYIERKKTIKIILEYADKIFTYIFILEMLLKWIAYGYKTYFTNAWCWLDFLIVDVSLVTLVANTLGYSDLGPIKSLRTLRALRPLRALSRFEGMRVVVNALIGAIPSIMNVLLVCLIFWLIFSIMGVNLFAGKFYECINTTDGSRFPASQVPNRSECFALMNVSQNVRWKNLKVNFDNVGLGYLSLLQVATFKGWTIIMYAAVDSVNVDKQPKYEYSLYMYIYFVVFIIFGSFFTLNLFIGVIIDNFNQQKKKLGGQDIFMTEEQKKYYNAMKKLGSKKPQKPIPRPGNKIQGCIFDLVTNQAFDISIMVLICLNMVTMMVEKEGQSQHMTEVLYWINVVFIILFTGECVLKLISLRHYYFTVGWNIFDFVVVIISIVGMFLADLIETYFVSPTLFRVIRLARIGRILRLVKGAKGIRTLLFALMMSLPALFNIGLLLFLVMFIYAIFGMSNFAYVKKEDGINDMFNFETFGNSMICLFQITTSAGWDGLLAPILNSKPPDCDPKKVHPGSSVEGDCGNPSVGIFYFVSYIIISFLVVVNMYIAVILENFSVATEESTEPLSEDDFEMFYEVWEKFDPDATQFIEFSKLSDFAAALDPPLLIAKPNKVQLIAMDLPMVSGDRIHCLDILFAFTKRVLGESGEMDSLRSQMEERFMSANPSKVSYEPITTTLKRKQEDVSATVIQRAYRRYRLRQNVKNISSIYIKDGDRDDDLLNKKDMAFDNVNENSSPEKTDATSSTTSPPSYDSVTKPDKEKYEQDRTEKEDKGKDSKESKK

Row | Compound | IC50
1 | Cc1cc(C(=O)N2CCC3(CC2)CN(C(=O)C(C)C)CC(c2ccccc2)O3)ccc1OC(C)C (centres unmarked) [Compound 289] | 2 to 5 µM
2 | O=C(c1ccc(C(F)(F)F)cn1)N1CCC2(CC1)CN(CC(F)F)CC(c1ccccc1)O2 (centres unmarked) [Compound 290] | > 5 µM
3 | COCC1CN(c2cccnc2)CC2(CCN(C(=O)c3ccc(OC(C)C)c(C)c3)CC2)O1 (centres unmarked) [Compound 291] | < 2 µM
4 | COC(=O)C(C)(C)c1ccc(C(=O)N2CCC3(CC2)CN(CC(F)(F)F)CC(c2ccccc2)O3)cc1OC (centres unmarked) [Compound 292] | 2 to 5 µM
5 | CCN(CC)C(=O)c1ccc(C(=O)N2CCC3(CC2)CN(CC(F)(F)F)CC(c2ccccc2)O3)cc1F (centres unmarked) [Compound 293] | < 2 µM
6 | CCC1CN(c2ccccn2)CC2(CCN(C(=O)c3ccc(OC(C)C)c(C)c3)CC2)O1 (centres unmarked) [Compound 295] | < 2 µM
7 | Cc1cc(C(=O)N2CCC3(CC2)CN(CC(F)F)CC(c2ccccn2)O3)ccc1OCCO (centres unmarked) [Compound 296] | > 5 µM
8 | COc1cc(C(=O)N2CCC3(CC2)CN(CC(F)F)CC(c2ccccn2)O3)cc(F)c1OC(C)C (centres unmarked) [Compound 297] | < 2 µM
9 | Cc1cn[nH]c1C1CN(CC(F)F)CC2(CCN(C(=O)c3ccc(OC(C)C)c(F)c3)CC2)O1 (centres unmarked) [Compound 298] | < 2 µM
10 | O=C(c1cccc(F)c1OC(F)F)N1CCC2(CC1)CN(CC(F)(F)F)CC(c1ccccc1)O2 (centres unmarked) [Compound 299] | > 5 µM
11 | COCC1CN(c2ncccn2)CC2(CCN(C(=O)c3ccc(C4(O)CCCC4)cc3)CC2)O1 (centres unmarked) [Compound 300] | < 2 µM
12 | Cc1cc(C(=O)N2CCC3(CC2)CN(CC(F)(F)F)CC(c2ccccc2)O3)ccc1OC(C)C (centres unmarked) [Compound 301] | < 2 µM
13 | COCC1CN(C2CCCC2)CC2(CCN(C(=O)c3ccc(OC(C)C)c(C)c3)CC2)O1 (centres unmarked) [Compound 302] | < 2 µM
14 | COCC1CN(c2ncccn2)CC2(CCN(C(=O)c3ccc(OC(C)C)c(C#N)c3)CC2)O1 (centres unmarked) [Compound 303] | < 2 µM
15 | COCC1CN(C2CCC(C(C)C)CC2)CC2(CCN(C(=O)c3ccc(OC(C)C)c(C)c3)CC2)O1 (centres unmarked) [Compound 304] | < 2 µM
16 | Cc1cc(C(=O)N2CCC3(CC2)CN(CC(F)F)CC(c2ccccn2)O3)ccc1OCCCO (centres unmarked) [Compound 305] | 2 to 5 µM
17 | Cc1cc(C(=O)N2CCC3(CC2)CN(CC(F)F)CC(c2ccn(C)n2)O3)ccc1OC(C)C (centres unmarked) [Compound 306] | < 2 µM
18 | CC(C)(O)c1ccc(C(=O)N2CCC3(CC2)CN(CC(F)F)CC(c2ccc(F)cc2)O3)cc1F (centres unmarked) [Compound 307] | < 2 µM
19 | CCN1CC(c2ccccc2)OC2(CCN(C(=O)c3ccc(OC(C)C)nc3)CC2)C1 (centres unmarked) [Compound 308] | > 5 µM
20 | Cc1cnc(C2CN(CC(F)(F)F)CC3(CCN(C(=O)c4ccc(OC(C)C)c(C)c4)CC3)O2)o1 (centres unmarked) [Compound 309] | < 2 µM
